Experimental data reported in patent US5281710A, “Dynemicin analogs: synthesis, methods of preparation and use” (The Scripps Research Institute, priority 1992, dated 1994).
Entries after “also recorded” stand apart in the source; their conditions may differ. Read-outs that look alike come from different tables or passages of the source.

How the values were obtained:
Chemical stability = format: physicochemical
φX174 Form I DNA = test: φX174 supercoiled DNA cleavage, agarose gel; format: biochemical; settings: for DNA cleavage potency: pH 8.5, 1000 and 100 μM
Method: The ethereal solution of Compound 40 produced by the LiAlH4 reduction of Compound 21 (39 mg, 0.10 mmol) was evaporated in vacuo to dryness and the residue dissolved in THF (4 mL) to give a 25 mM solution of Compound 40, assuming complete conversion of Compound 21. […]
Thus, a vial containing a 50 micromolar per base pair solution […] of the same buffer solution and 2.0 microliters of a 5.0 millimolar ethanol solution of Compound 40.
[…] A 2.0 microliter portion of glycerol loading buffer solution containing bromothymol blue indicator was added to each vial. A 10 microliter aliquot was then drawn from each. Gel electrophoresis analysis of the aliquots was performed using a 1.0 percent agarose gel with ethidium bromide run at 115 volts for 1 hour. DNA cleavage was indicated by the formation of nicked relaxed circular DNA (form II) or linearized DNA (form III), which was detected by visual inspection of the gel under 310 nanometer ultraviolet light using ethidium bromide.

cancer cell lines = test: cells; format: cell-based; settings: Average data obtained from 5~10 cell lines; read-out: IC50 (average)
Method: (§1) In addition to the screening already discussed, several of the before-described compounds and chimeras were screened against several or all of a panel of ten to twenty-five cancerous cell lines as target cells and seven "normal" cell preparations. This screening utilized a sulforhodamine B cytotoxidity assay as discussed below.
SULFORHODAMINE B CYTOTOXICITY ASSAY
a. Stock drug solutions were prepared by dissolving drug in the appropriate solvent (determined during chemical characterization studies) and sterile filtering the drug-solvent solution through a sterile 0.2μ filter unit. An aliquot was taken from each filtered drug solution and the O.D. was measured to determine the drug concentration.
f. Incubate (37° C., 5-10 percent CO2 in humidified incubator) plates for a total of 72 hours. Check plates at 24 hour intervals microscopically for signs of cytotoxicity.
(§2) IC50 values; i.e., the concentration of Compound required to kill one-half of the treated cells, were then calculated.
All other cells or cell lines were obtained from the American Type Culture Collection (ATCC) (all except CHO cells are human or mouse cancer cell lines as described by the ATC).
Tables 1 and 2 herein below provide average IC50 data from five to all ten of the above cancer cells lines for fused ring enediyne compounds disclosed herein. Those tables provide a generic structure and a description of the R group of that generic structure for each compound. Compound numbers as noted hereinbefore are also provided. Table 3 contains data for two fused-ring enediyne compounds (Compounds 47 and 120) as well as data for six chimers. Table 4 contains cancer cell and noraml cell cytotoxicity data for one select fused ring enediyne, Compound 153 against a number of "normal" cell preparations and tumor cell lines. Table 5 contains cancer cell and normal cell cytotoxicity data for another fused ring enediyne, Compound 250 against a similar panel of cells.

[1] = test system: Ovcar-3 ovarian carcinoma cells; test: Sulforhodamine B cytotoxicity, Ovcar-3; format: cell-based; settings: read-out: Cytotoxicity (IC50)
Method: as §1, §2

[2] = test system: H-322 lung carcinoma cells; test: Sulforhodamine B cytotoxicity, H-322; format: cell-based; settings: Table 7, H-322
Method: as §1, §2

[3] = test system: Capan-1 pancreatic carcinoma cells; test: Sulforhodamine B cytotoxicity, Capan-1; format: cell-based
Method: as §1, §2

SK-Mel-28 melanoma cells = test: Sulforhodamine B cytotoxicity, SK-Mel-28; format: cell-based
Method: as §1, §2

[4] = test system: HL-60 promyeocytic leukemia cells; test: Sulforhodamine B cytotoxicity, HL-60; format: cell-based
Method: as §1, §2

[5] = test system: CHO Chinese hamster ovary cells; test: Sulforhodamine B cytotoxicity, CHO; format: cell-based; settings: Table 7, CHO
Method: as §1, §2

[6] = test system: MCF-7 breast carcinoma cells; test: Sulforhodamine B cytotoxicity, MCF-7; format: cell-based; settings: Table 7, MCF-7, read-out: Cytotoxicity (IC50)
Method: as §1, §2

[7] = test system: P-388 mouse lymphoma cells; test: Sulforhodamine B cytotoxicity, P-388; format: cell-based; settings: Table 7, P-388, read-out: Cytotoxicity (IC50)
Method: as §1, §2

[8] = test system: NHDF normal human dermal fibroblasts; test: in vitro; format: cell-based; settings: for IC50: NHDF, read-out: Range of Average IC50 Values, NHDF
Method: as §1, §2
NHDF Normal human dermal fibroblasts

[9] = test system: MOLT-4 (Leukemia) cell line; test: cells; format: cell-based
Method: as §1, §2

[10] = test system: UCLA P-3 non-small cell lung carcinoma cells; test: Sulforhodamine B cytotoxicity, UCLA-P3; format: cell-based, human; settings: read-out: Cytotoxicity (IC50)
Method: as §1, §2
UCLA P-3 Dr. D. Morton, University of California, […]

[11] = test system: HT-29 colon carcinoma cells; test: Sulforhodamine B cytotoxicity, HT-29; format: cell-based; settings: Table 7, HT-29, read-out: Cytotoxicity (IC50)
Method: as §1, §2

[12] = test system: MCF-7(ADR) breast carcinoma cells; test: Sulforhodamine B cytotoxicity, MCF-7/ADR; format: cell-based; settings: Homo sapiens, NCI/ADR-RES, Adriamycin resistant
Method: as §1, §2

[13] = test system: 93 base-pair Sal I - Sph I double-stranded DNA fragment of pBR322; test: DNase I footprinting of oligosaccharide glycosides; format: binding; settings: 37° C., 30 minutes pre-incubation
Description: Footprinting studies the O-methyl glycosides of saccharides A, an analog of C, F, G and H, Compounds A-1, C'-1, F-1, G-1 and H-1, respecitvely, as shown below, were designed to probe these questions.
The oligosaccharides A-1, C'-1, F-1, G-1 and H-1 were obtained by chemical synthesis following procedures similar to those discussed before. The 93 base-pair Sal I - Sph I double-stranded DNA fragment of pBR322 was obtained enzymatically and was [5-^32 P]-labeled on one strand. pBR322 DNA was cleaved at the unique Sal I site, dephosphorylated using calf intestine phosphatase, (5'-^32 P]-phosphorylated using T4 polynucletide kinase and [g-^32 P] ATP (4.5 ^m Ci/pmol) , and cleaved again at the unique Sph I site. These precursors generated a 93 base-pair double-stranded fragment, (5'-^32 P)-labeled at the Sal I end, which was purified by gel electrophosresis in a nondenaturing 10 percent polyacrylamide gel and subsequent column chromatography on Sephadex G-25. The oligosaccharides were pre-incubated with the DNA fragment at 37° C. for 30 minutes and DNase I was added to cleave the DNA and generate footprinting patterns by autoradiography.
The degree of protection against DNase I digestion offered by both the natural and unnatural stereoisomers was determined by comparing the amount of radioactivity in adjacent lanes along the electrophoresis gel. […]

[14] = 5.0 mM, pH 8.5 and 9.0, 48 hours, 37° C.
[15] = Homo sapiens, CAPAN-1, Capan-1, read-out: IC50
[16] = Homo sapiens, SK-MEL-28, SK-Mel-28, read-out: IC50
[17] = Homo sapiens, HL-60, HL-60, read-out: IC50
[18] = 10 mM, pH 8.5, 48 hours, 37° C.

## COc1ccc2c(c1)N(C(=O)Oc1ccccc1)[C@H]1C#C/C=C\C#C[C@]3(O)CCC[C@]14O[C@]243 (relative stereo) [Compound 41]
Chemical stability
  chemical stability: reasonable stability under neutral and basic conditions; also recorded: cyclized rapidly under acidic conditions
φX174 Form I DNA; 2 mM, pH 5.0
  DNA cleavage: also cleaved DNA
Cancer cell lines
  IC50: 20 µM

## CC(C)(COC(=O)N1c2ccccc2[C@@]23O[C@]24CCC[C@H]3C#C/C=C\C#C[C@H]14)S(=O)(=O)c1ccccc1 (relative stereo) [Compound 429]
[1]; Homo sapiens, OVCAR-3, Table 7, Ovcar-3
  IC50: 50 µM
[2]; NCI-H322, read-out: Cytotoxicity (IC50)
  IC50: 50 µM
[3]; Homo sapiens, CAPAN-1, Table 7, Capan-1, read-out: Cytotoxicity (IC50)
  IC50: 50 µM
SK-Mel-28 melanoma cells; Homo sapiens, SK-MEL-28, Table 7, SK-Mel-28, read-out: Cytotoxicity (IC50)
  IC50: < 100 µM
[4]; Homo sapiens, HL-60, Table 7, HL-60, read-out: Cytotoxicity (IC50)
  IC50: 25 µM
[5]
  Cytotoxicity (IC50): Non-Toxic
[6]; Homo sapiens, MCF7, 72 h
  IC50: 25 µM
[7]; Mus musculus, P388
  IC50: 13 µM
[8]; Table 7, NHDF
  Cytotoxicity (IC50): Non-Toxic
[9]; Homo sapiens, MOLT-4, Table 7, Molt-4, read-out: Cytotoxicity (IC50)
  IC50: 100 µM
φX174 Form I DNA; [14]
  DNA cleavage: no DNA cleaving ability
[10]; Homo sapiens, UCLA P-3, Table 7, UCLA-P3
  IC50: 50 µM
[11]; Homo sapiens, HT-29, 72 h
  IC50: 25 µM

## O=C(OCCS(=O)(=O)c1ccccc1)N1c2ccccc2[C@@]23O[C@]24CCC[C@H]3C#C/C=C\C#C[C@H]14 [(+)-45]
[3]; [15]
  IC50: 0.39 µM
SK-Mel-28 melanoma cells; [16]
  IC50: 6.3 µM
[4]; [17]
  IC50: > 0.098 µM
[12]
  IC50: 0.78 µM
φX174 Form I DNA
  DNA cleavage potency: comparable potencies

## O=C(OCCS(=O)(=O)c1ccccc1)N1c2ccccc2[C@]23O[C@@]24CCC[C@@H]3C#C/C=C\C#C[C@@H]14 [(-)-45]
[3]; [15]
  IC50: 1.6 µM
SK-Mel-28 melanoma cells; [16]
  IC50: 6.3 µM
[4]; [17]
  IC50: 0.78 µM
[12]
  IC50: 1.6 µM
[9]; Homo sapiens, MOLT-4, Molt-4 leukemia cell line, read-out: IC50
  IC50: 0.1 µM
φX174 Form I DNA
  DNA cleavage potency: comparable potencies

## N.N.[Cl][Pt][Cl] [Cis-Platin]
[8]; control drugs
  IC50: 50 µM

## COC12C#C/C=C\C#CC3NC4=CC(=O)C=CC45OC15C3(O)CCC2 (stereo not shown) [Compound 58]
Chemical stability
  chemical stability: stable molecules
φX174 Form I DNA; 5 mM, pH 8.0, 24 hours
  DNA cleavage: diminished activity against DNA

## COC12C#C/C=C\C#CC3N(C(=O)Oc4ccccc4)C4=CC(=O)C=CC45OC15C3(O)CCC2 (stereo not shown) [Compound 62]
Chemical stability
  chemical stability: stable molecules
φX174 Form I DNA; 5 mM, pH 8.0, 24 hours
  DNA cleavage: diminished activity against DNA

## OC12CCCC3C#Cc4ccccc4C#CC1Nc1ccccc1C32O (stereo not shown) [Compound 76b]
Chemical stability
  chemical stability: cyclized spontaneously at 25 °C in the presence of 1,4-cyclohexadiene
φX174 Form I DNA; [18]
  DNA cleavage: converted supercoiled .phi.X174 form I DNA

## OC12CCCC3C#Cc4cc5ccccc5cc4C#CC1Nc1ccccc1C32O (stereo not shown) [Compound 87b]
Chemical stability
  chemical stability: stable in the presence of 1,4-cyclohexadiene, but cycloaromatized at elevated temperature (65° C., two hours)
φX174 Form I DNA; [18]
  DNA cleavage: converted supercoiled .phi.X174 form I DNA

## CC(COC(=O)N1c2ccccc2C23OC24CCCC3C#CC=CC#CC14)S(=O)(=O)c1ccccc1 (stereo not shown) [Compound 428]
[1]; Table 7, Ovcar-3
  IC50: 13 µM
[2]
  Cytotoxicity (IC50): Non-Toxic
[3]; Table 7, Capan-1, read-out: Cytotoxicity (IC50)
  IC50: 6.3 µM
SK-Mel-28 melanoma cells; Table 7, SK-Mel-28, read-out: Cytotoxicity (IC50)
  IC50: < 100 µM
[4]; Table 7, HL-60, read-out: Cytotoxicity (IC50)
  IC50: 1.6 µM
[5]; read-out: Cytotoxicity (IC50)
  CC50: < 100 µM
[6]; 4320 min
  IC50: < 100 µM
[7]
  IC50: 1.6 µM
[8]; Table 7, NHDF, read-out: Cytotoxicity (IC50)
  CC50: < 100 µM
[9]; Table 7, Molt-4, read-out: Cytotoxicity (IC50)
  IC50: 1 µM
φX174 Form I DNA; [14]
  DNA cleavage: greatly reduced in vitro DNA cleaving ability
[10]; Table 7, UCLA-P3
  IC50: 13 µM
[11]; 4320 min
  IC50: 13 µM

## CCNC1COC(OC2C(OC)OC(C)C(NOC3CC(O)C(SC(=O)c4c(C)c(I)c(OC5OC(C)C(O)C(OC)C5O)c(OC)c4OC)C(C)O3)C2O)CC1OC (stereo not shown) [Compound F-1]
[13]
  protection of DNA against DNase I: concentration-dependent protection

## CCNC1COC(OC2C(OC)OC(C)C(NOC3CC(O)C(SC(=O)c4c(C)c(I)c(OC5OC(C)C(O)C(OC)C5O)c(OC)c4OC)C(C)O3)C2O)CC1OC (stereo not shown) [Compound G-1]
[13]
  protection of DNA against DNase I: no protection at the same concentrations

## COC1=C(C(=O)O)[C@H](C)[C@@]23O[C@]24c2cc(O)c5c(c2N[C@H]3C#C/C=C\C#C[C@H]14)C(=O)c1c(O)ccc(O)c1C5=O [Dynemicin A]
[8]; Homo sapiens, control drugs
  IC50: 0.01 µM

## N[C@@H](Cc1ccc(N(CCCl)CCCl)cc1)C(=O)O [Melphelan]
[8]; Homo sapiens
  IC50: 100 µM

## CN(Cc1cnc2nc(N)nc(N)c2n1)c1ccc(C(=O)N[C@@H](CCC(=O)O)C(=O)O)cc1 [Methotrexate]
[8]; Homo sapiens, control drugs
  IC50: 50 µM

## CC(=O)O[C@H]1C(=O)[C@@]2(C)[C@H]([C@H](OC(=O)c3ccccc3)[C@]3(O)C[C@H](OC(=O)[C@H](O)[C@@H](NC(=O)c4ccccc4)c4ccccc4)C(C)=C1C3(C)C)[C@]1(OC(C)=O)CO[C@@H]1C[C@@H]2O [Taxol]
[8]; Homo sapiens, control drugs
  IC50: 0.01 µM
